According to ChEMBL document CHEMBL4177607, “Antibacterial constituents of the plant family Amaryllidaceae” (2017):
In brackets after ≈: the same amount, converted by molar mass.

What was measured:
Klebsiella pneumoniae [1] = test: Antibacterial activity against Klebsiella pneumoniae assessed as diameter of inhibition zone at 20 mg/ml; type: functional; settings: read-out: DIZ
Escherichia coli [2] = test: Antibacterial activity against Escherichia coli assessed as diameter of inhibition zone at 20 mg/ml; type: functional; settings: read-out: DIZ
Helicobacter pylori = test: Antibacterial activity against Helicobacter pylori assessed as diameter of inhibition zone at 1 mg/ml; type: functional; settings: read-out: DIZ
Salmonella typhi = test: Antibacterial activity against Salmonella typhi assessed as diameter of inhibition zone at 20 mg/ml; type: functional, Salmonella enterica subsp. enterica serovar Typhi; settings: Salmonella enterica; read-out: DIZ
Pseudomonas aeruginosa [3] = test: Antibacterial activity against Pseudomonas aeruginosa assessed as diameter of inhibition zone at 20 mg/ml; type: functional; settings: read-out: DIZ
Staphylococcus aureus [4] = test: Antibacterial activity against Staphylococcus aureus assessed as diameter of inhibition zone at 1 mg/ml; type: functional; settings: read-out: DIZ
Staphylococcus aureus [5] = test: Antibacterial activity against Staphylococcus aureus assessed as diameter of inhibition zone at 20 mg/ml; type: functional; settings: read-out: DIZ
Escherichia coli [6] = test: Antibacterial activity against Escherichia coli assessed as diameter of inhibition zone at 1 mg/ml; type: functional; settings: read-out: DIZ
Escherichia coli [7] = test: Bacteriostatic activity against Escherichia coli assessed as growth inhibition at 8 ug/ml after 24 hrs; type: functional; settings: read-out: GI
[8] = test system: Agrobacterium tumefaciens; test: Antibacterial activity against Agrobacterium tumefaciens assessed as inhibition of crown gall tumor initiation at 1 mg/ml; type: functional
Staphylococcus aureus [9] = test: Antibacterial activity against Staphylococcus aureus after 24 hrs; type: functional
Klebsiella pneumoniae [10] = test: Antibacterial activity against Klebsiella pneumoniae incubated overnight by two-fold serial dilution method; type: functional
Escherichia coli [11] = test: Antibacterial activity against Escherichia coli incubated overnight by two-fold serial dilution method; type: functional
Staphylococcus aureus [12] = test: Antibacterial activity against Staphylococcus aureus incubated overnight by two-fold serial dilution method; type: functional
Bacillus subtilis = test: Antibacterial activity against Bacillus subtilis incubated overnight by two-fold serial dilution method; type: functional
Escherichia coli [13] = test: Antibacterial activity against Escherichia coli by agar dilution method; type: functional
Staphylococcus aureus [14] = test: Antibacterial activity against Staphylococcus aureus by agar dilution method; type: functional
Pseudomonas aeruginosa [15] = test: Antibacterial activity against Pseudomonas aeruginosa; type: functional
Flavobacterium columnare [16] = test: Antibacterial activity against Flavobacterium columnare BioMed after 24 hrs; type: functional
Staphylococcus aureus [17] = test: Antibacterial activity against Staphylococcus aureus; type: functional
Flavobacterium columnare [18] = test: Antibacterial activity against Flavobacterium columnare ALM-00-173 after 24 hrs; type: functional; settings: ALM-00-173, 24 h
Escherichia coli [19] = test: Antibacterial activity against Escherichia coli; type: functional
Flavobacterium columnare [20] = test: Antibacterial activity against Flavobacterium columnare ALM-00-173; type: functional
Edwardsiella ictaluri = test: Antibacterial activity against Edwardsiella ictaluri after 24 hrs; type: functional
Flavobacterium columnare [21] = test: Antibacterial activity against Flavobacterium columnare BioMed; type: functional
Rhodococcus fascians = test: Antibacterial activity against Corynebacterium fascians assessed as diameter of inhibition zone at 10 mM after 48 to 72 hrs by paper disc method; type: functional; settings: Rhodococcoides fascians; read-out: DIZ
Staphylococcus aureus [22] = test: Antibacterial activity against Staphylococcus aureus assessed as diameter of inhibition zone at 3 mg/ml; type: functional; settings: read-out: DIZ
Pseudomonas aeruginosa [23] = test: Antibacterial activity against Pseudomonas aeruginosa assessed as diameter of inhibition zone at 3 mg/ml; type: functional; settings: read-out: DIZ

**Q.** Which zone of inhibition at 20000 µg/mL (Klebsiella pneumoniae [1]) does the source give for `CC[C@H](CC[C@@H](C)[C@H]1CC[C@H]2[C@@H]3CC=C4C[C@@H](O[C@@H]5O[C@H](CO)[C@@H](O)[C@H](O)[C@H]5O)CC[C@]4(C)[C@H]3CC[C@]12C)C(C)C` [SITOGLUSIDE] here?
**A.** 8 mm

**Q.** And the zone of inhibition at 20000 µg/mL (Escherichia coli [2])?
**A.** 9 mm

**Q.** What about the zone of inhibition at 1000 µg/mL (Helicobacter pylori) of the same compound?
**A.** 9 mm

**Q.** What about the zone of inhibition at 20000 µg/mL (Salmonella typhi) of the same compound?
**A.** 8 mm

**Q.** And the zone of inhibition at 20000 µg/mL (Pseudomonas aeruginosa [3])?
**A.** 7 mm

**Q.** And the zone of inhibition at 1000 µg/mL (Staphylococcus aureus [4])?
**A.** 9 mm

**Q.** And the zone of inhibition at 20000 µg/mL (Staphylococcus aureus [5])?
**A.** 7 mm

**Q.** What about the zone of inhibition at 1000 µg/mL (Escherichia coli [6]) of the same compound?
**A.** 14 mm

**Q.** Which results are given for `O=c1c2cc3c(cc2c2cccc4ccn1c42)OCO3`?
**A.** zone of inhibition at 20000 µg/mL (Escherichia coli [2]): 7 mm; zone of inhibition at 20000 µg/mL (Staphylococcus aureus [5]): 7 mm

**Q.** With `O=C1N[C@@H]2C(=C[C@H](O)[C@@H](O)[C@H]2O)c2cc3c(c(O)c21)OCO3` [NARCICLASINE] as the compound, how does the inhibition of growth at 8 µg/mL (Escherichia coli [7]) read?
**A.** 50%

**Q.** What about the zone of inhibition at 1000 µg/mL (Staphylococcus aureus [4]) of the same compound?
**A.** 11 mm

**Q.** And the inhibition at 1000 µg/mL [8]?
**A.** 62%

**Q.** And the zone of inhibition at 1000 µg/mL (Escherichia coli [6])?
**A.** 13 mm

**Q.** `COc1cc2c(cc1OC)[C@@H]1[C@@H](OC2=O)[C@@H](O)C[C@H]2CCN(C)[C@H]21.Cl` was tested. Which MIC (Staphylococcus aureus [9]) did it give?
**A.** > 37 µg/mL

**Q.** How did the MIC (Klebsiella pneumoniae [10]) turn out when `COc1c2c(cc3c1OCO3)[C@]13C=C[C@H](OC)C[C@H]1N(CC3)C2` [BUPHANIDRINE] was run?
**A.** 63 µg/mL (≈ 200 µM)

**Q.** What about the MIC (Escherichia coli [11]) of the same compound?
**A.** 63 µg/mL (≈ 200 µM)

**Q.** What about the MIC (Staphylococcus aureus [12]) of the same compound?
**A.** 63 µg/mL (≈ 200 µM)

**Q.** What about the MIC (Bacillus subtilis) of the same compound?
**A.** 130 µg/mL (≈ 412 µM)

**Q.** Which results are given for `COC1=CC(=O)[C@@]23CCN(Cc4c2cc2c(c4OC)OCO2)[C@@H]3C1` [DISTICHAMINE]?
**A.** MIC (Klebsiella pneumoniae [10]): 63 µg/mL (≈ 191 µM); MIC (Escherichia coli [11]): 63 µg/mL (≈ 191 µM); MIC (Staphylococcus aureus [12]): 63 µg/mL (≈ 191 µM); MIC (Bacillus subtilis): 130 µg/mL (≈ 395 µM)

**Q.** What does the source list for `CC1(C)S[C@@H]2[C@H](NC(=O)Cc3ccccc3)C(=O)N2[C@H]1C(=O)O` [PENICILLIN G]?
**A.** MIC (Escherichia coli [13]): 0.77 µg/mL (≈ 2.3 µM); MIC (Staphylococcus aureus [14]): 0.46 µg/mL (≈ 1.38 µM); zone of inhibition at 1000 µg/mL (Staphylococcus aureus [4]): 28 mm; zone of inhibition at 1000 µg/mL (Escherichia coli [6]): 25 mm

**Q.** What does the source list for `[O-]c1cc2c3c(c1)c1cc4c(cc1c[n+]3CC2)OCO4` [UNGEREMINE]?
**A.** MIC (Pseudomonas aeruginosa [15]): 125 to 250 µg/mL (≈ 471 to 942 µM); MIC (Flavobacterium columnare [16]): 1 µM (≈ 0.265 µg/mL); MIC (Staphylococcus aureus [17]): 25 to 265 µg/mL (≈ 94.2 to 999 µM); MIC (Flavobacterium columnare [18]): 1 µM (≈ 0.265 µg/mL); MIC (Escherichia coli [19]): 25 to 50 µg/mL (≈ 94.2 to 188 µM); MIC (Flavobacterium columnare [20]): 3 µg/mL (≈ 11.3 µM); MIC (Edwardsiella ictaluri): 3 µg/mL (≈ 11.3 µM); MIC (Flavobacterium columnare [21]): 3 µg/mL (≈ 11.3 µM); zone of inhibition at 10000 µM (Rhodococcus fascians): 15 mm

**Q.** With `CCCCCCCCCCCCCCCCC/C=C/CCC[C@@H](O)[C@@H](O)C(CO)N(C(=O)[C@H](O)CCCCCCCCCCCCCCC)C(O)CO` (stereo not given in full) as the compound, how does the MIC (Escherichia coli [13]) read?
**A.** 50 µg/mL (≈ 66.1 µM)

**Q.** And the MIC (Staphylococcus aureus [14])?
**A.** 30 µg/mL (≈ 39.7 µM)

**Q.** How did the zone of inhibition at 3000 µg/mL (Staphylococcus aureus [22]) turn out when `O[C@H]1C=C2[C@H]3CN(Cc4cc5c(cc43)OCO5)[C@H]2C[C@@H]1O` was run?
**A.** 22 mm

**Q.** And the zone of inhibition at 3000 µg/mL (Pseudomonas aeruginosa [23])?
**A.** 16 mm
